Laboratory results: PubChem BioAssay AID270 (DTP/NCI, 2004)
Results filed as inconclusive are left out.

Tested on: BDF1 mice, s.c. Lewis lung carcinoma, T/C %
Assay: NCI In Vivo Anticancer Drug Screen. Data for tumor model Lewis Lung Carcinoma (subcutaneous) in B6D2F1 (BDF1) mice
Conditions: endpoint: median survival time, higher = longer survival
Outline: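 Tumor-bearing mice were treated with test compound, and either survival or tumor size was recorded. Values are the treated-group measurement divided by that of the vehicle-treated control group.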

For `CC1CCCC(NC(=O)N(CCCl)N=O)C1` (stereo not drawn), the T/C (dose: 20.0 mg/kg/injection, schedule: Q01DX001 (ip), vehicle: gum acacia) was 110 % of control, the T/C (dose: 30.0 mg/kg/injection, schedule: Q01DX001 (ip), vehicle: gum acacia) was 110 % of control and the T/C (dose: 43.0 mg/kg/injection, schedule: Q01DX001 (ip), vehicle: gum acacia) was 92 % of control. The T/C (dose: 64.0 mg/kg/injection, schedule: Q01DX001 (ip), vehicle: gum acacia) was 90 % of control and the T/C (dose: 96.0 mg/kg/injection, schedule: Q01DX001 (ip), vehicle: gum acacia) was 155 % of control.
`Nc1nc(N)nc(N)n1` was tested, and the T/C (dose: 100.0 mg/kg/injection, schedule: Q01DX009 (ip), vehicle: saline with Tween-80) was 103 % of control, the T/C (dose: 200.0 mg/kg/injection, schedule: Q01DX009 (ip), vehicle: saline with Tween-80) was 95 % of control and the T/C (dose: 400.0 mg/kg/injection, schedule: Q01DX009 (ip), vehicle: saline with Tween-80) was 98 % of control.
